Drawing on patent US20230063457A1, “DNA-PK INHIBITING COMPOUNDS” (Provincial Health Services Authority, priority 2019, published 2023), this text covers IC50 for 47 molecules.

The target of the assay is DNA-PK kinase (Homo sapiens, UniProt P78527). Description: Inhibition of DNA-PK kinase activity (ADP-Glo). The assay is classed as biochemical. Particulars: averaged values over all measurements on all batches; 150 μM ATP, 1 hour at 25° C. As to the method: Inhibition of DNA-PK Kinase Activity Assay buffer was 50 mM Hepes pH 7.5 containing 0.1 mg/ml BSA (albumin from bovine serum), 50 μM DTT (dithiothreitol), 20 mM MgCl2 and 10 μg/ml calf thymus DNA (activation buffer). Kinase reaction was carried out in OptiPlate 384 plates (PerkinElmer 6007299). All compounds tested were dissolved in dimethyl sulfoxide (DMSO) and further dilutions were made in assay buffer. Final DMSO concentration was 1% (v/v). Pre-incubation consisted of compound (1% DMSO in control and blank wells) and 24 ng/well DNA-PK kinase to allow the compounds to bind the enzyme (with buffer in the blank wells) for 15 minutes; after this time 150 μM Adenosine-5′-triphosphate (ATP) and 0.2 μg/μl DNA-PK substrate were added to commence the kinase reaction. Incubations were carried out for 1 hour at 25° C. Kinase activity was determined by using ADP-Glo™ reagent from Promega according to the manufacturer's instructions. The light generated was measured using a luminometer (EnVision, PerkinElmer). Signal obtained in the wells containing blank samples was subtracted from all other wells and IC50 values were determined by fitting a sigmoidal curve to % inhibition of control versus Log10 compound concentration.

Take `NC(=O)N1CCC(Oc2nc(N3CCOCC3)cc3ncccc23)CC1` [Parent compound 147]: the IC50 (in general, the concentration needed to halve the response being measured) was found to be 340 nM.
Molecule `Cc1ccnc(NCC2CCN(c3nc(N4CCOCC4)cc4ncccc34)CC2)c1` [Example 134] had a concentration for half-maximal inhibition (IC50) of 155 nM.
Regarding `C[S+]([O-])[C@H]1CC[C@@H](Oc2nc(N3CCOCC3)cc3ncccc23)CC1` (mixture of isomers) [Example 83], the IC50 is 169 nM.
`CC1(CNc2ncccn2)CCN(c2nc(N3CCOCC3)cc3ncccc23)C1` (centres unmarked) [Example 25] showed an IC50 of 224 nM.
As for `CC(C)(C)OC(=O)NCC1CCN(c2nc(N3CCOCC3)cc3ncccc23)CC1` [Example 33], the concentration for half-maximal inhibition (IC50) was found to be 532 nM.
The molecule `O=C(NC1CCN(c2nc(N3CCOCC3)cc3ncccc23)CC1)c1ncccn1` [Example 27] yielded an IC50 of 274 nM.
With `Fc1cccnc1NCC1CCN(c2nc(N3CCOCC3)cc3ncccc23)CC1` [Example 135] the figure was 178 nM; with `C[C@@H]1CN(c2ncn[nH]2)CC[C@@H]1Oc1nc(N2CCOCC2)cc2ncccc12` (single isomer, unassigned) [Parent compound 160], 493 nM; with `c1cnc2cc(N3CCOCC3)nc(N3CCC(c4ncc[nH]4)CC3)c2c1` [Example 86], 223 nM.
`c1cnc2cc(N3CCOCC3)nc(OC3CCNCC3)c2c1` [Example 89] gave an IC50 of 361 nM.
Next, `c1cnc(N2CC3(CCN(c4nc(N5CCOCC5)cc5ncccc45)C3)C2)nc1` [Example 34]: 588 nM; `c1cnc(NCCC2CCCN(c3nc(N4CCOCC4)cc4ncccc34)C2)nc1` (centres unmarked) [Example 23]: 211 nM; `COc1nc(NCC2CCN(c3nc(N4CCOCC4)cc4ncccc34)CC2)ncc1Cl` [Example 124]: 247 nM.
Next, `CC(C)(C)OC(=O)N1CCC2CN(c3nc(N4CCOCC4)cc4ncccc34)CC21` (centres unmarked) [Example 37]: 1300 nM; `CN(C)C(=O)N1CC(COc2nc(N3CCOCC3)cc3ncccc23)C1` [Parent compound 149]: 244 nM.
With `c1cnc2cc(N3CCOCC3)nc(N3CCNCC3)c2c1` [Example 95] the figure was 5440 nM.
In turn, `CC(=O)Nc1ccnc(NCC2CCN(c3nc(N4CCOCC4)cc4ncccc34)CC2)n1` [Example 126] registered an IC50 of 676 nM.
`CC1CN(c2ncn[nH]2)CCC1Oc1nc(N2CCOCC2)cc2ncccc12` (centres unmarked) [Parent compound 159] yielded an IC50 of 116 nM.
Molecule `O=C(Nc1ncccn1)N1CCN(c2nc(N3CCOCC3)cc3ncccc23)CC1` [Parent compound 146] had a half-maximal inhibitory concentration (IC50) of 232 nM.
In turn, `COc1ccc(COc2nc(N3CCOCC3)cc3ncccc23)cc1` [Example 53] gave a half-maximal inhibitory concentration (IC50) of 242 nM.
As to `COc1cccnc1NCC1CCN(c2nc(N3CCOCC3)cc3ncccc23)CC1` [Example 137], the half-inhibitory concentration (IC50) was determined as 457 nM.
With `c1cnc2cc(N3CCOCC3)nc(N3CCC(CNc4ccncc4)CC3)c2c1` [Example 136] the figure was 340 nM; with `CN(C)CC1CCN(c2nc(N3CCOCC3)cc3ncccc23)CC1` [Parent compound 145], 3440 nM; with `c1ccc(NCC2CCN(c3nc(N4CCOCC4)cc4ncccc34)CC2)cc1` [Example 138], 501 nM.
Next, `c1cnc(NCC2CCCN(c3nc(N4CCOCC4)cc4ncccc34)C2)nc1` (centres unmarked) [Example 36]: 949 nM.
Molecule `N#Cc1cc(Br)cnc1NCC1CCN(c2nc(N3CCOCC3)cc3ncccc23)CC1` [Example 125] showed an IC50 of 504 nM.
Next, `N#Cc1cnc(NCC2CCN(c3nc(N4CCOCC4)cc4ncccc34)CC2)nc1Cl` [Example 123]: 232 nM; `O=S(=O)(NCC1CCN(c2nc(N3CCOCC3)cc3ncccc23)CC1)c1ccc(F)cc1` [Example 142]: 808 nM; `c1cnc(NC2CCCN(c3nc(N4CCOCC4)cc4ncccc34)C2)nc1` (centres unmarked) [Example 31]: 492 nM.
With `CS(=O)(=O)NCC1CCN(c2nc(N3CCOCC3)cc3ncccc23)CC1` [Parent compound 141] the figure was 370 nM.
Next, `C[C@H]1CN(c2cc3ncccc3c(O[C@H]3CC[C@@H](c4nc[nH]n4)CC3)n2)CCO1` [Example 68]: 48 nM.
Molecule `c1cnc(NCCCOc2nc(N3CCOCC3)cc3ncccc23)nc1` [Example 7] gave an IC50 of 415 nM.
Consider `O=C(O)c1ccnc(NCC2CCN(c3nc(N4CCOCC4)cc4ncccc34)CC2)n1` [Example 110], for which the half-maximal inhibitory concentration (IC50) was 88 nM.
Consider `c1cnc2cc(N3CCOCC3)nc(OC3CCCCC3)c2c1` [Example 9], for which half-maximal inhibition (IC50) required 468 nM.
Next, `c1cnc(N2CCC3(C2)CN(c2nc(N4CCOCC4)cc4ncccc24)C3)nc1` [Example 35]: 720 nM; `c1cnc(N2CCC23CCN(c2nc(N4CCOCC4)cc4ncccc24)C3)nc1` (centres unmarked) [Example 29]: 345 nM; `c1cnc(N2CC3CN(c4nc(N5CCOCC5)cc5ncccc45)CC3C2)nc1` (centres unmarked) [Example 28]: 342 nM.
The molecule `CC(=O)NCC1CCN(c2nc(N3CCOCC3)cc3ncccc23)CC1` [Parent compound 140] came in with a half-inhibitory concentration (IC50) of 257 nM.
The molecule `CC(C)(C)OC(=O)NCCC1CCN(c2nc(N3CCOCC3)cc3ncccc23)CC1` [Example 30] yielded an IC50 of 369 nM.
Next, `O=C(Nc1ncccn1)C1CCN(c2nc(N3CCOCC3)cc3ncccc23)CC1` [Example 26]: 226 nM; `c1cncc(C2CCCCN2c2nc(N3CCOCC3)cc3ncccc23)c1` (centres unmarked) [Example 85]: 2030 nM.
Regarding `Nc1ccnc(NCC2CCN(c3nc(N4CCOCC4)cc4ncccc34)CC2)n1` [Parent compound 139], it took 126 nM to reach half-maximal inhibition (IC50).
Next, `OCc1ccnc(NCC2CCN(c3nc(N4CCOCC4)cc4ncccc34)CC2)n1` [Example 116]: 124 nM; `c1cnc(CN2CCC3CN(c4nc(N5CCOCC5)cc5ncccc45)CC32)nc1` (centres unmarked) [Example 42]: 2260 nM; `CC(C)(C)OC(=O)N1CCC(Oc2nc(N3CCOCC3)cc3ncccc23)CC1` [Example 48]: 328 nM.
`c1cnc2cc(N3CCOCC3)nc(N3CCCCC3)c2c1` [Example 32]: the IC50 worked out at 523 nM.
In the case of `Oc1cnc2c(Cl)c(N3CCOCC3)nc(O[C@H]3CC[C@@H](n4ccnc4)CC3)c2c1` [Parent compound 172], the 50% inhibitory concentration (IC50) was determined as 242 nM.
